Reference: patent US5444042A, “Method of treatment of neurodegeneration with calpain inhibitors” (Cortex Pharmaceuticals, priority 1994, dated 1995)
Where a SMILES comes first, the peptide text is derived from it. The star is where a group is joined. Cbz = O=C(OCc1ccccc1)*; CH2Cl = ClC*

Experiments:
Calpain II [1] = assay: Kapp/[I] progress curve method, Calpain II (Table 1C); format: biochemical; parameters: unit not given here; conditions: Rabbit Calpain II, Suc-leu-tyr-amidomethylcoumarin
Description: The Halo-Ketone Peptides, like the substituted isocoumarins, are irreversible inhibitors of Calpain. We determined the Kapp /[I] values for various members of this class of compounds against Calpains I and II. For comparison, we also determined these values against the additional thiol proteases Papain and Cathepsin B for at least one Halo-Ketone Peptide.
We assayed Calpain I and II using Suc-leu-tyr-amidomethylcoumarin. Papain was assayed using benzoyl-arg-4-nitroanilide, and Cathepsin B (bovine) was assayed using CBZ-lys-4-nitrophenyl ester. We followed the progress curve method of Tian and Tsou, Biochemistry, 21:1028-1032 (1982), the disclosure of which is hereby incorporated by reference, to derive kinetic data. Briefly, this method makes use of the equation: [formula] where [P.infin. ] represents the concentration of product formed at a time approaching infinity, A is the Kapp in the presence of substrate (S), K is the Michaelis constant and [Y] is the concentration of the inhibitor. Since [S] and [Y] are known and V and K can be determined, Kapp can be readily determined.

[2] = system: Calpain in crude brain extracts; assay: Ca2+-stimulated spectrin proteolysis in crude brain extracts (Example 2); format: biochemical; conditions: 100 μM
Description: The activity of Calpain in crude brain extracts was measured by examining the Ca^2+ -stimulated proteolysis of the endogenous substrate spectrin. Brain tissue was homogenized in 10 mM Tris pH=7.4, 0.32M sucrose, 1 mM EGTA, 1 mM dithiothreitol and the nuclei and debris removed by low speed centrifugation. […] Proteolysis of spectrin was evaluated by western blot as described by Seubert, et at. (Brain Research, 459:226-232, 1988), the disclosure of which is hereby incorporated by reference. Briefly, a known quantity of a spectrin-containing sample treated with Calpain is separated by SDS-PAGE and immunoblotted with anti-spectrin antibody. The amount of spectrin immunoreactivity found corresponding to the characteristic BDP's is indicative of the amount of […] activity present in the sample. An examplary method for quantitating BDP's is to assay Spectrin BDP's by homogenizing brain parts in 20 mM Tris pH=7.2, 0.32M sucrose, 50 μM Ac-Leu-Leu-nLeu-H on ice. Homogenates are then mixed 1:1 with 10% SDS, 5% β-mercaptoethanol, 10% glycerol, 10 mM Tris pH=8.0, 0.5% bromophenolblue, heated to 95° C., and subjected to electrophoresis in 41/2% polyacrylamide gels. The proteins in the gels are transferred to nitrocellulose and the spectrin and BDP's detected using a rabbit polyclonal anti-spectrin antibody and established immunodetection methods. The amount of spectrin and BDP's in each sample can be quantitated by densitrometric scanning of the developed nitrocellulose.

Calpain I [3] = biological target: T1, Calpain I (Homo sapiens, UniProt P07384); assay: Calpain I 14C-methylated casein proteolysis (Table 1A); format: biochemical
T1 sequence (P07384 1-714): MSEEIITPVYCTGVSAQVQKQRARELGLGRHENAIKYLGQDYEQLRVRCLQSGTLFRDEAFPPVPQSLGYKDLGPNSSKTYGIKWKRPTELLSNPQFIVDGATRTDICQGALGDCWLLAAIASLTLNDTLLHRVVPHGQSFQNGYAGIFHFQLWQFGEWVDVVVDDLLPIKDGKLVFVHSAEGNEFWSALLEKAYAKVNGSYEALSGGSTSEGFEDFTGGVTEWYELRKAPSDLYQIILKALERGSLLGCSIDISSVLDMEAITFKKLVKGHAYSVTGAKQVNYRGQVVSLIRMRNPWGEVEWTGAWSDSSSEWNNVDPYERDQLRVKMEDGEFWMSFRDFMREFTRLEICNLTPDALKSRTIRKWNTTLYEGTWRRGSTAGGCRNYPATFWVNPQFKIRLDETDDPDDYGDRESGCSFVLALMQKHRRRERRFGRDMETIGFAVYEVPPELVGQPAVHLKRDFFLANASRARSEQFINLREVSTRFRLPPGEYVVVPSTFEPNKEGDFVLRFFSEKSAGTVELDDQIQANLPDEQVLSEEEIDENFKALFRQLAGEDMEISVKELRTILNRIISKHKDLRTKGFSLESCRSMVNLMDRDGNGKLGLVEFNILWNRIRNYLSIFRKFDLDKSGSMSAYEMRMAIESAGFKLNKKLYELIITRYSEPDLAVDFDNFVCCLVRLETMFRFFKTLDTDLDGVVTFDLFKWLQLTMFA
T1 sequence (P04632 1-268 partner): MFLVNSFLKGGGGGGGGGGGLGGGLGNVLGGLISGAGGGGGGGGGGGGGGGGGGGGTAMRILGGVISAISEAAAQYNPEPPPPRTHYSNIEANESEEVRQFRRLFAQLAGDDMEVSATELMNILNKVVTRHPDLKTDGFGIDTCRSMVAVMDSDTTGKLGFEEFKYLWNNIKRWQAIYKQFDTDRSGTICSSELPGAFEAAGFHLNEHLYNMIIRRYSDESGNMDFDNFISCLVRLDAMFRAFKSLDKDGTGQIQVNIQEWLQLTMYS
Description: The isocoumarins are irreversible inhibitors of Calpain. We obtained IC50 values for a variety of these Calpain Inhibitors as a kinetic analysis of these compounds.
Calpains I and II were purified by the method of (Yoshimura, et al. 1983). (Kitahara 1984) provides an alternative purification scheme. Calpain II may alternatively be purchased from Sigma Chemical Co. as "Calcium Activated Neutral Protease." In this assay, purified Calpain was incubated with ^14 C-methylated casein in the presence of various Heterocyclic Compounds and the amount of acid-soluble radioactivity released by the action of Calpain was measured.

Calpain within platelets = assay: Platelet membrane permeation assay, spectrin proteolysis (Examples 4A, 4B); format: cell-based, rat; conditions: for inhibition of Calpain within platelets: A23187 1 μM; for IC50: concentration at which 50% of the Calpain activation present in controls occurred
Method in brief: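 Rat (Sprague-Dawley) platelets at 10^7 cells/ml in HEPES buffer pH 7.4, preincubated 5 min with inhibitor, then 5 min with 1 μM A23187 to activate calpain. Spectrin proteolysis assessed by SDS-PAGE and anti-spectrin immunoblot, quantified by densitometry.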

Stability in plasma = format: in vitro ADME; conditions: unit assumed
Excerpt: (§1) We determined the haft-life of several Peptide Keto-Compounds in both plasma and liver homogenates.

Chym = Chym (Bos taurus, UniProt P00766); assay: Chym KI (Table 1B(ii)); format: biochemical
Excerpt: (§2) We tested the ability of an additional group of Peptide Keto-Compounds to inhibit several proteases in order to evaluate their specificity for Calpain.

Calpain II [4] = assay: Calpain II KI (Table 1B(ii)); format: biochemical
Excerpt: as §2

Cathepsin B = Cathepsin B (Bos taurus, UniProt P07688); assay: Cathepsin B KI (Table 1B(ii)); format: biochemical; conditions: read-out: KI CathB
Excerpt: as §2

[5] = Stability in liver homogenates; format: in vitro ADME; conditions: unit assumed
Excerpt: as §1

Calpain I [6] = biological target: T1, Calpain I; assay: Calpain I KI (Table 1B(ii)); format: biochemical; conditions: Table 1B(ii)
Excerpt: as §2

PP Elastase = PP Elastase (Sus scrofa, UniProt P00772); assay: PP Elastase KI (Table 1B(ii)); format: biochemical
Sequence of PP Elastase (P00772 27-266): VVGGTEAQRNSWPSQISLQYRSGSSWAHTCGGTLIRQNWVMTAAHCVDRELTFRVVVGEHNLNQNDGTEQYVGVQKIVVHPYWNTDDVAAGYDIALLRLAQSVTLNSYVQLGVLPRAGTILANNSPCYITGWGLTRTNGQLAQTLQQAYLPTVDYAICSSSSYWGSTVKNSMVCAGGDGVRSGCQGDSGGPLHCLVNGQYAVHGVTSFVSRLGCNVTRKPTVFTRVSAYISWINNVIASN
Excerpt: as §2

Papain = biological target: T2, Papain (Carica papaya, UniProt P00784); assay: Papain KI (Table 1B(ii)); format: biochemical
T2 sequence (P00784 134-345): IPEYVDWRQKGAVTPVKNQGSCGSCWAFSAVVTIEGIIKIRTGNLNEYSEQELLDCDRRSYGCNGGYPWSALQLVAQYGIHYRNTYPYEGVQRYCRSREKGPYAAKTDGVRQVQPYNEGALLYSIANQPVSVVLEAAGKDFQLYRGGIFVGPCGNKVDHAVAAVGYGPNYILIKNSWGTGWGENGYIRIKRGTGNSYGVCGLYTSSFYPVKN
Excerpt: as §2

Molecule	Kapp/[I] CII (Calpain II [1])	inhibition of spectrin proteolysis in crude brain extracts [2]	IC50 (Calpain I [3]) [µM]	inhibition of Calpain within platelets (Calpain within platelets; 100 μM)	t1/2 plasma (Stability in plasma) [h]	Ki (Chym) [µM]	IC50 (Calpain within platelets) [µM]	Ki (Calpain II [4]) [µM]	Ki (Cathepsin B) [µM]	t1/2 liver [5] [h]	Ki (Calpain I [6]) [µM]	Ki (PP Elastase) [µM]	platelet assay, semi-quantitative (Calpain within platelets; semi-quantitative, 100 μM)	Ki (Papain) [µM]
CC(=O)NC(C)C(=O)NC(C)C(=O)NC(C)C(=O)NC(C)C(=O)CCl (stereo not drawn) [Ac-Ala-Ala-Ala-Ala-CH2 Cl] (Ac-AAAA-CH2Cl; configuration not given here)	1300													
N=C(N)SCCOc1oc(=O)c2cc(NC(=O)[C@H](N)Cc3ccccc3)ccc2c1Cl [D-Phe-NH-CiTEtOIC, 7-(D-phenylalanylamino)-4-chloro-3-(2-isothiureidoethoxy)isocoumarin]		significant inhibition	200	significant inhibition										
N=C(N)SCCOc1oc(=O)c2cc(NC(=O)Cc3ccccc3)ccc2c1Cl [PhCH2 CONH-CiTEtOIC, 7-(phenylacetylamino)-4-chloro-3-(2-isothiureidoethoxy)isocoumarin]			30											
N=C(N)SCCOc1oc(=O)c2cc(NC(=O)NCc3ccccc3)ccc2c1Cl [PhCH2 NHCONH-CiTEtOIC, 7-(benzylcarbamoylamino)-4-chloro-3-(2-isothiureidoethoxy)isocoumarin]		significant inhibition	90	significant inhibition										
CC(NC(=O)OCc1ccccc1)C(=O)NC(Cc1ccccc1)C(=O)CCl (stereo not drawn) [Z-Ala-Phe-CH2 Cl]	2400													
CCC(NC(=O)C(CC(C)C)NC(=O)OCc1ccccc1)C(=O)C(=O)NCc1ccccc1 (stereo not drawn) [Z-Leu-Abu-CONHBz, Z-Leu-Abu-CONH-Bzl]					> 1	> 300	1.5	0.35	2	> 1				
CCCCNC(=O)C(=O)C(CC)NC(=O)C(CC(C)C)NC(=O)OCc1ccccc1 (stereo not drawn) [Z-Leu-Abu-CONHnBu, Z-Leu-Abu-CONH-nBu]					> 1	> 300	2		13	> 1	0.2	5		
CCCNC(=O)C(=O)[C@H](CC)NC(=O)[C@H](CC(C)C)NC(=O)OCc1ccccc1 [Z-Leu-Abu-CONHnPr, Z-Leu-Abu-CONH-nPr]					> 1	> 300	70	0.25	8	> 1		2		
CCC(NC(=O)C(CC(C)C)NC(=O)OCc1ccccc1)C(=O)C(=O)O (stereo not drawn) [Z-Leu-Abu-COOH]				significant inhibition	> 1	> 150	8	0.022	1.5	> 1	0.075	> 150		
CCCCNC(=O)C(=O)C(Cc1ccccc1)NC(=O)C(CC(C)C)NC(=O)OCc1ccccc1 (stereo not drawn) [Z-Leu-Phe-CONHnBu, Z-Leu-Phe-CONH-nBu]					> 1	8	38	0.028	3	> 1		> 100		
CCCNC(=O)C(=O)C(Cc1ccccc1)NC(=O)C(CC(C)C)NC(=O)OCc1ccccc1 (stereo not drawn) [Z-Leu-Phe-CONHnPr, Z-Leu-Phe-CONH-nPr]					> 1	18	24	0.05	3	> 1	15	> 300		
CC(C)CC(NC(=O)OCc1ccccc1)C(=O)NC(Cc1ccccc1)C(=O)C(=O)O (stereo not drawn) [Z-Leu-Phe-COOH]				significant inhibition	> 1	76	6.5	0.0057	4.5	> 1	0.0085	> 150		
CC(C)C(NC(=O)OCc1ccccc1)C(=O)NC(Cc1ccccc1)C(=O)CCl (stereo not drawn) [Z-Val-Phe-CH2 Cl] (Cbz-Val-Phe-CH2Cl; configuration not given here)	27200													
Z-Leu-Met-CO2 Et [Z-Leu-Met-COOEt]		significant inhibition		significant inhibition	0.133	1.75		1.5	55		1	> 100	+	140
